In assay [1] the target is T1, nLucOGG1 in HeLa cells (Homo sapiens, UniProt O15527).
T1 construct: thermal shift read by NanoGlo luminescence
Kind of assay: Cellular Thermal Shift Assay to measure compound affinity for nLucOGG1 in HeLa cells (CETSA DTm). It counts as cell-based. Particulars: 10 μM compound, 37° C. 60 min, Tm vs DMSO control. As to the method:
Biological Example 2: Cellular Thermal Shift Assay to Measure Compound Affinity for ^nLucOGG1 in HeLa Cells (CETSA DTm)
Cell Culture and Transfection of Hela Cells with ^nLucOGG1: For all tests, Hela cells were maintained in growth medium, Dulbecco's Minimum Eagle Medium (Multicell: Cat #319-005-CL) supplemented with 10% heat-inactivated fetal bovine serum (Gibco: Cat #12484-028) at 37° C. and 5% CO2 in a humidified tissue culture incubator. Transient transfections were performed using the Lonza 4-D Nucleofector X unit according to the manufacturer's protocol (Lonza Cat #V4XC-1024). Briefly, for each transfection, 1.2×10^6 cells were centrifuged at 1000 RPM for 5 minutes at room temperature before being diluted in 100 μL SE solution containing 18% v/v supplement and 1.5 μg pNF1-N-empty or pNF1-N-OGG1a vector. The total volume was transferred to a 100 μL nucleofection cuvette prior to transfer to the apparatus where HeLa cell nucleofection protocol CN-114 was executed. Following nucleofection, 500 μL complete media was added to the cells in the cuvette before transferring to a 6-well dish containing 1.5 mL of complete media. Cells were left to incubate for 48 hours before performing all cellular thermal shift experiments.
Cellular Thermal Shift Assays for Target Engagement (CETSA): Forty-eight hours following nucleofection, cells were washed once with DPBS−/−(Multicell: Cat #311-425-CL) and lifted with 0.25% Trypsin-EDTA (Multicell: Cat #325-043-CL) prior to dilution in growth medium and centrifugation at 1000 RPM for 5 minutes at room temperature. The resulting cell pellet was then resuspended in growth medium, cells were counted and the volume adjusted to 500 k cells/mL (2×).
For delta Tm determination, OGG1 inhibitor compounds were dissolved in DMSO to a final working concentration of 20 mM. Working solutions were then diluted in complete media to 20 μM or 0.1% DMSO for the vehicle control (2×). 2×OGG1 inhibitor compound solutions or 0.1% DMSO control were then pre-dispensed into MicroAmp Optical 96-well PCR reaction plates (Applied Biosystems: Cat #4346906) at 50 μL/well. Next, 50 μL or 25 k cells/well from the 2× cell suspension was added to the pre-loaded PCR plates. All plates were prepared as duplicates, covered with adhesive plate sealers (Perkin Elmer: Cat #6050185) and left to incubate at 37° C. for 60 minutes. During incubation, sufficient NanoGlo luciferase assay reagents (Promega: Cat #N1120) were left to equilibrate to room temperature in the dark. Immediately before heating the plates, the NanoGlo substrate was mixed with the NanoGlo buffer at a 1:50 ratio. The thermal cycler (Veriti 96-Well Thermal Cycler, Thermo Fisher Scientific) was allowed to reach the designated temperature prior to placement of the PCR plate into the heating block. For Tm determination experiments, duplicate plates containing a fixed concentration of test compound (10 μM final) as well as vehicle control were prepared to perform a 12-point temperature gradient spanning 37-70° C. for 3 minutes. Therefore, two thermal cycler protocols were set up covering two 6-step temperature gradients ranging from 37-52° C. and 52-70° C. Plates were then allowed to cool at room temperature for 5 minutes after the heat treatment followed by transfer of 75 μL of the reaction into a 96-well white polystyrene microplate (Corning: Cat #CLS3903) and addition of 75 μL of the prepared NanoGlo mixture. Microplates were then left to shake in the dark for 5 minutes before total luminescence was measured on a SpectraMax IX3 plate reader. The luminescence value obtained at each temperature was normalized to the luminescence obtained at 37° C. and the ratio obtained was plotted against the temperature. A Boltzman Sigmoidal non-linear regression was applied to the resulting data to determine Tm values and the difference between the Tm value for a given OGG1 inhibitor relative to the DMSO vehicle control was the delta Tm.

Assay [2] deals with T2, hOGG1 (Homo sapiens, UniProt O15527). Briefly: Surface Plasma Resonance with hOGG1 to measure compound affinity (OGG1 SPR Kd). It counts as binding. Set-up: Protein His-hOGG1 (12-323) was prepared. The note with it: Biacore T-200, immobilized his-tagged OGG1; pH 7.4; 2% DMSO; single-cycle kinetics. The method, then:
Surface Plasma Resonance with hOGG1 to Measure Compound Affinity (OGG1 SPR Kd); All the SPR studies were performed on a Biacore T-200 instrument (Cytiva life sciences) using series S NTA sensor chip (cat #BR-1005-32, Cytiva life sciences). Recombinant his-tagged OGG1 (mol. wt. 36003; ChemPartner, Shanghai, China) was immobilized on NTA sensor chip via Ni^2+/NTA chelation using NTA reagent kit (Cytiva life sciences; cat #289950) as per manufacturer's recommended protocol. The running buffer during immobilization contained HEPES (20 mM, pH 7.4), 150 mM NaCl, 0.5 mM TCEP (tris(2-carboxyethyl)phosphine), and 0.005% Tween-20. NTA sensor chip (experimental cell) was first conditioned by injecting regeneration solution (350 mM EDTA, flow rate 30 μL/min, 2 injections 60 each). Additional wash with 50 mM NaOH was used whenever the chip was regenerated (flow rate 30 μL/min, 1 injection of 60 s). The sensor chip was then activated with 0.5 mM NiCl2 (flow rate 10 μL/min, 2 injection of 60 s, leading to a baseline increase of ~40 RU), and the excess Ni^2+ was removed using immobilization buffer containing 3 mM EDTA (flow rate 10 μL/min, 1 injection of 60 s). Finally, OGG1 (diluted to 6.2 μg/mL in running buffer) was injected on the activated sensor chip at a flow rate of 10 μL/min until immobilization level reached ~6000 RU. Any loosely bound protein was removed by passing the immobilization buffer overnight at 20 μL/min. At this point, the drift in baseline was ~0.01 RU/s and the final immobilization level was ~2500 RU. Reference cell was left untreated. SPR binding experiments were performed using binding buffer (20 mM HEPES (pH 7.4), 150 mM NaCl, 0.5 mM TCEP, 0.005% Tween-20, and 2% DMSO) at a flow rate of 30 μL/min. Single-cycle kinetics approach was used for binding analysis which consisted of sequential injections of increasing concentrations of test compound (a 3-fold serial dilution with 5 concentrations; highest 750 or 1500 nM; with final DMSO concentration at 2%) over the immobilized protein without regeneration step between each sample injection. Each injection was 45 seconds long (contact time), followed by a final dissociation of 600 sec. The Biacore T-200 Evaluation software 3.1 (GE Healthcare) was used to determine kinetic parameters from SPR data. All the reported sensograms were reference subtracted and corrected for refractive index contributions from solvent using 8-point solvent correction (1.4 to 2.8% DMSO in binding buffer). Data were fit to both steady state and 1:1 kinetic model to obtain Kon, Koff and binding affinity (Kd).
(In general: Surface plasmon resonance follows binding to a sensor surface in real time, without labels.)

Assay [3] addresses T2, hOGG1. Briefly: Biochemical fluorescence assay to measure enzymatic activity of hOGG1 (OGG1/APEX IC50). Also on record: Protein His-hOGG1 (12-323) was prepared; His (N); host or cells: E. coli. The note with it: 1 nM OGG1+2 nM APEX+6 nM dsDNA (8-oxo-dG substrate); pH 7.5; RT 40 min; read-out: OGG1/APEX IC50. Summed up:
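Coupled glycosylase/AP-endonuclease read-out: 8-oxo-dG-containing dsDNA (6 nM) cleaved by 1 nM His-hOGG1 (12-323) plus 2 nM APEX1 over 40 min at room temperature, after 20 min enzyme–compound preincubation; buffer 20 mM Tris pH 7.5, 100 mM KCl, 0.1% BSA, 0.01% Tween. IC50 comes from sigmoidal 3-parameter fitting of % inhibition derived from TAMRA signal.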

Where only a bound is given, the exact number is not on record here.

T2 sequence (O15527 12-323): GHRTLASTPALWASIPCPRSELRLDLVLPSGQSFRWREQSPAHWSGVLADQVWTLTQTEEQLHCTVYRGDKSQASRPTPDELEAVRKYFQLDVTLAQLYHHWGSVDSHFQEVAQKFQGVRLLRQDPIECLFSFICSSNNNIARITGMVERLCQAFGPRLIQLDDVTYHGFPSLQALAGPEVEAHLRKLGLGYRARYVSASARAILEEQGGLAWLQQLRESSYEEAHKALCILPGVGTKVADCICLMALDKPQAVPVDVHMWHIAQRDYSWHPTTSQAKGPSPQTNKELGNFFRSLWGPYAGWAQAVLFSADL
T1 sequence (O15527 whole entry): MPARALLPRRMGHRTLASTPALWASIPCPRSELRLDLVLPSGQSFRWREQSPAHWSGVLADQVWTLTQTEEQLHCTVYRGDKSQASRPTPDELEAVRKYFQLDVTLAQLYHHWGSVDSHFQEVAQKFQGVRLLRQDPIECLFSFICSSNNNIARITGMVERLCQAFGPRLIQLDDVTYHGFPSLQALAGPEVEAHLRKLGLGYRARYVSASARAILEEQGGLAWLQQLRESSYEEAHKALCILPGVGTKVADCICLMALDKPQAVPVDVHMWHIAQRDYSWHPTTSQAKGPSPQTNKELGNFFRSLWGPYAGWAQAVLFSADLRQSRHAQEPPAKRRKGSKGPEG

Broadly, the ΔTm is the change in melting temperature against a reference sample. Broadly, the Kd is the free concentration of one partner at which half of the binding sites on the other are occupied at equilibrium, for simple one-to-one binding. Lower therefore signals tighter binding. Regarding `COc1ccc(NC(=O)[C@]2(C)CC[C@@H](N3Cc4c(C)ccc(OC)c4NC3=O)CC2)cc1Cl` (single isomer, unassigned) [Example 6, (1r,4r)-N-(3-Chloro-4-methoxyphenyl)-4-(8-methoxy-5-methyl-2-oxo-1,2-dihydroquinazolin-3(4H)-yl)-1-methylcyclohexanecarboxamide], in assay [1], the ΔTm at 10 µM is not above 6 °C. In addition, the Kd in assay [2] is more than 1000 nM.

For the compound `COc1ccc(NC(=O)[C@]2(C)CC[C@@H](N3Cc4c(C)ccc(OC)c4NC3=O)CC2)cc1C#N` (single isomer, unassigned) [Example 8, (1r,4r)-N-(3-cyano-4-methoxyphenyl)-4-(8-methoxy-5-methyl-2-oxo-1,2-dihydroquinazolin-3(4H)-yl)-1-methylcyclohexanecarboxamide], the ΔTm at 10 µM in assay [1] was not above 6 °C. Further, the Kd in assay [2] is more than 1000 nM.

`COc1ccc(NC(=O)[C@]2(C)CC[C@@H](N3Cc4c(C)ccc(OC)c4NC3=O)CC2)cc1C` (single isomer, unassigned) [Example 10, (1r,4r)-N-(3-methyl-4-methoxyphenyl)-4-(8-methoxy-5-methyl-2-oxo-1,2-dihydroquinazolin-3(4H)-yl)-1-methylcyclohexanecarboxamide]: the shift in melting temperature (ΔTm) at 10 µM in assay [1] was not above 6 °C. In assay [2], this compound gave a Kd of more than 1000 nM.

With `COc1cc(NC(=O)[C@]2(C)CC[C@@H](N3Cc4c(C)ccc(OC)c4NC3=O)CC2)ccc1C` [Example 12, (1r,4r)-N-(3-Methoxy-4-methylphenyl)-4-(8-methoxy-5-methyl-2-oxo-1,2-dihydroquinazolin-3(4H)-yl)-1-methylcyclohexanecarboxamide], the thermal shift (ΔTm) at 10 µM in assay [1] is not above 6 °C. For the same compound, the Kd in assay [2] was more than 1000 nM.

As to `Cc1cc(NCCN(C)C)cc2c1CN([C@H]1CC[C@@H](C(=O)Nc3cc4ccccc4[nH]3)CC1)C2=O` [Example 132, (1s,4s)-4-(6-((2-(Dimethylamino)ethyl)amino)-4-methyl-1-oxoisoindolin-2-yl)-N-(1H-indol-2-yl)cyclohexane-1-carboxamide], the ΔTm at 10 µM in assay [1] is more than 10 °C.

As to `Cc1cc(NCCN(C)C)cc2c1CN([C@H]1CC[C@@H](C(=O)Nc3cc4ccccc4[nH]3)CC1)C2=O` [Example 271, (1s,4s)-4-(6-(2-(dimethylamino)ethylamino)-4-methyl-1-oxoisoindolin-2-yl)-N-(1H-indol-2-yl)cyclohexanecarboxamide], in assay [3], the IC50 was less than 100 nM. Further, in assay [2], the dissociation constant Kd was 10 to 100 nM.

The values are drawn from patent US20260317356A1, “SMALL MOLECULE MODULATORS OF OGG1” (AZKARRA THERAPEUTICS, INC., priority 2023, published 2026).
